Measurements taken from US11760754B2, “Heterocyclic mitochondrial activity inhibitors and uses thereof” (UNIVERSITÉ DE MONTRÉAL, priority 2017, dated 2023).
pEC50: −log10 of the molar value.

Experiments:
OCI-AML3 cells = test: OCI-AML3 cell growth inhibition, dose-response viability assay (CellTiterGlo); assay type: cell-based; conditions: Homo sapiens, OCI-AML-3, 144 h, read-out: AML-3 EC50
Method in brief: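 OCI-AML3 cells seeded, then exposed to compound in serial dilutions from 10 μM to 0.5 nM, in duplicate or quadruplicate. Viability read by CellTiter-Glo.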

MLL-AF9 cells = test: MLL-AF9 leukemia cell growth inhibition, dose-response viability assay (CellTiterGlo); assay type: cell-based, murine; conditions: Mus musculus, MLL-AF9, 120 h, read-out: MLL-AF9 EC50
Method in brief: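 Murine MLL-AF9 leukemia cells (female, MSCV MLL-AF9 IRES Puro transduced) were treated with serial compound dilutions from 10 μM to 0.5 nM in duplicates or quadruplicates. Viability read by CellTiterGlo dose-response.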

Row | Compound | pEC50 (OCI-AML3 cells) | pEC50 (MLL-AF9 cells)
1 | Fc1cc(C(F)(F)F)ccc1/C=C/c1nc(COc2ccc(CCCCn3ncnn3)cc2)co1 [Compound 110, (E)-4-((4-(4-(2H-tetrazol-2-yl)butyl)phenoxy)methyl)-2-(2-fluoro-4-(trifluoromethyl)styryl)oxazole] | 5.00 to 6.00 | 5.00 to 6.00
2 | Fc1cc(C(F)(F)F)ccc1/C=C/c1nc(/C=C/c2ccc(CCCCn3ccnn3)cc2)co1 [Compound 111, 4-((E)-4-(4-(1H-1,2,3-triazol-1-yl)butyl)styryl)-2-((E)-2-fluoro-4-(trifluoromethyl)styryl) oxazole] | 5.00 to 6.00 | 6.00 to 6.30
3 | Fc1ccc2oc(-c3nc(COc4ccc(CCCCn5ccnn5)cc4)co3)cc2c1 [Compound 112, 4-((4-(4-(1H-1,2,3-triazol-1-yl)butyl)phenoxy)methyl)-2-(5-fluorobenzofuran-2-yl) oxazole] | 6.30 to 7.00 | 7.00 to 7.30
4 | Fc1ccc2sc(-c3nc(COc4ccc(CCCCn5ccnn5)cc4)co3)cc2c1 [Compound 113, 4-((4-(4-(1H-1,2,3-triazol-1-yl)butyl)phenoxy)methyl)-2-(5-fluorobenzo[b]thiophen-2-yl)oxazole] | 6.00 to 6.30 | 6.30 to 7.00
5 | CCOC(=O)c1cn(CCCCc2ccc(OCc3coc(/C=C/c4ccc(C(F)(F)F)cc4)n3)cc2)nn1 [Compound 114, ethyl (E)-1-(4-(4-((2-(4-(trifluoromethyl)styryl)oxazol-4-yl)methoxy)phenyl)butyl)-1H-1,2,3-triazole-4-carboxylate] | 5.00 to 6.00 | 5.00 to 6.00
6 | Fc1cc(C(F)(F)F)ccc1/C=C/c1nc(COc2ccc(COCCn3ccnn3)cc2)co1 [Compound 115, (E)-4-((4-((2-(1H-1,2,3-triazol-1-yl)ethoxy)methyl)phenoxy)methyl)-2-(2-fluoro-4-(trifluoromethyl)styryl)oxazole] | 6.00 to 6.30 | 6.30 to 7.00
7 | Fc1cc(Cl)ccc1/C=C/c1nc(COc2ccc(CCCCn3ccnn3)cc2)co1 [Compound 116, (E)-4-((4-(4-(1H-1,2,3-triazol-1-yl)butyl)phenoxy)methyl)-2-(4-chloro-2-fluorostyryl)oxazole] | 7.00 to 7.30 | 7.00 to 7.30

Second part, the compound after the results:

Row | pEC50 (OCI-AML3 cells) | pEC50 (MLL-AF9 cells) | Compound
8 | 6.30 to 7.00 | 6.30 to 7.00 | Fc1ccc(/C=C/c2nc(COc3ccc(CCCCn4ccnn4)cc3)co2)c(Cl)c1 [Compound 117, (E)-4-((4-(4-(1H-1,2,3-triazol-1-yl)butyl)phenoxy)methyl)-2-(2-chloro-4-fluorostyryl)oxazole]
9 | 6.30 to 7.00 | 6.30 to 7.00 | Clc1ccccc1/C=C/c1nc(COc2ccc(CCCCn3ccnn3)cc2)co1 [Compound 118, (E)-4-((4-(4-(1H-1,2,3-triazol-1-yl)butyl)phenoxy)methyl)-2-(2-chlorostyryl)oxazole]
10 | 6.30 to 7.00 | 6.30 to 7.00 | Clc1ccc(/C=C/c2nc(COc3ccc(CCCCn4ccnn4)cc3)co2)c(Cl)c1 [Compound 119, (E)-4-((4-(4-(1H-1,2,3-triazol-1-yl)butyl)phenoxy)methyl)-2-(2,4-dichlorostyryl)oxazole]
11 | 6.30 to 7.00 | > 7.30 | Fc1cc(/C=C/c2nc(COc3ccc(CCCCn4ccnn4)cc3)co2)cc(F)c1F [Compound 120, (E)-4-((4-(4-(1H-1,2,3-triazol-1-yl)butyl)phenoxy)methyl)-2-(3,4,5-trifluorostyryl)oxazole]
12 | 7.00 to 7.30 | 7.00 to 7.30 | Fc1ccc(/C=C/c2nc(COc3ccc(CCCCn4ccnn4)cc3)co2)cc1F [Compound 121, (E)-4-((4-(4-(1H-1,2,3-triazol-1-yl)butyl)phenoxy)methyl)-2-(3,4-difluorostyryl)oxazole]
13 | > 7.30 | > 7.30 | N#Cc1ccc(/C=C/c2nc(COc3ccc(CCCCn4ccnn4)cc3)co2)c(F)c1 [Compound 122, (E)-4-(2-(4-((4-(4-(1H-1,2,3-triazol-1-yl)butyl)phenoxy)methyl)oxazol-2-yl)vinyl)-3-fluorobenzonitrile]
